The text below walks through data of ChEMBL document CHEMBL1156858, “Comparative analysis of DNA alkylation by conjugates between pyrrole-imidazole hairpin polyamides and chlorambucil or seco-CBI” (2010).

Calls of active or inactive are those of the source. The rule behind the calls is not given here. Some results are limits rather than exact numbers.

In assay [1] the test system is Nucleic Acid. Briefly: Induction of DNA alkylation at 3'-side adenines in 5'-AGCAGTCAAAAA-3' site of 5'-Texas Red-modified 209bp DNA fragment at 10 nm to 1 uM after 18 hrs at 23 degC by high-resolution denaturing PAGE. Type of assay: nucleic-acid assay.
Assay [2] relates to Nucleic Acid. Kind of assay: Induction of DNA alkylation at 5'-AAAAAAGACTGCT-3' site of 5'-Texas Red-modified 209bp DNA fragment at 10 nm to 1 uM after 18 hrs at 23 degC by high-resolution denaturing PAGE. Type of assay: nucleic-acid assay.
Assay [3] has as its system Nucleic Acid. Briefly: Induction of DNA alkylation at 5'-TCTTTTTAA-3' site of 5'-Texas Red-modified 209bp DNA fragment at 10 nm to 1 uM after 18 hrs at 23 degC by high-resolution denaturing PAGE. Type of assay: nucleic-acid assay.
The subject of the next assay is K562. Kind of assay: Growth inhibition of human K562 cells after 48 hrs by WST8 dye reduction assay. The class given is functional. Particulars: K562, 48 h. A general note: Formazan colour is commonly taken as a measure of viable cells.
In assay [4] the test system is Nucleic Acid. Briefly: Induction of DNA alkylation at 5' side in 5'-AGCAGTC-3' site of 5'-Texas Red-modified 209bp DNA fragment at 10 nm to 1 uM after 18 hrs at 23 degC by high-resolution denaturing PAGE. Type of assay: nucleic-acid assay.

One may read the GI50 as the concentration giving 50% growth inhibition.

`CN(C)CCCNC(=O)c1cc(NC(=O)c2cc(NC(=O)c3nc(NC(=O)CCNC(=O)c4cc(NC(=O)c5ncc(NC(=O)CCCNC(=O)c6cc(NC(=O)c7nc(NC(=O)CCNC(=O)c8cc(NC(=O)c9cc(NC(=O)c%10nc(NC(=O)CCCc%11ccc(N(CCCl)CCCl)cc%11)cn%10C)cn9C)cn8C)cn7C)cn6C)n5C)cn4C)cn3C)cn2C)cn1C`: the result in the assay with Nucleic Acid [1] and with Nucleic Acid [3] was Active. In addition, in the assay with Nucleic Acid [2], the outcome was inactive. Further, the GI50 in the assay on K562 is more than 2500 nM.

Regarding `CC(=O)Nc1cn(C)c(C(=O)Nc2cc(C(=O)Nc3cc(C(=O)NCCC(=O)Nc4cn(C)c(C(=O)Nc5cc(C(=O)N[C@H](CCNC(=O)CCCc6ccc(N(CCCl)CCCl)cc6)C(=O)Nc6cnc(C(=O)Nc7cc(C(=O)NCCC(=O)Nc8cn(C)c(C(=O)Nc9cc(C(=O)Nc%10cc(C(=O)NCCCN(C)C)n(C)c%10)n(C)c9)n8)n(C)c7)n6C)n(C)c5)n4)n(C)c3)n(C)c2)n1`, the outcome with Nucleic Acid [1] and in the assay on Nucleic Acid [4] was Active. In addition, the result in the assay with Nucleic Acid [2] was inactive. In the assay on K562, this molecule yielded a GI50 of more than 10000 nM.

Consider `CC(=O)Nc1cn(C)c(C(=O)Nc2cc(C(=O)Nc3cc(C(=O)NCCC(=O)Nc4cn(C)c(C(=O)Nc5cc(C(=O)NCCCC(=O)Nc6cn(C)c(C(=O)Nc7cc(C(=O)NCCC(=O)Nc8cn(C)c(C(=O)Nc9ccc%10[nH]c(C(=O)N%11CC(CCl)c%12c%11cc(O)c%11ccccc%12%11)cc%10c9)n8)n(C)c7)n6)n(C)c5)n4)n(C)c3)n(C)c2)n1` (configuration not stated), for which the outcome in the assay with Nucleic Acid [1] and in the assay with Nucleic Acid [3] was Active. This molecule also returned a GI50 in the assay on K562 of 60 nM.

Regarding `CC(=O)Nc1cn(C)c(C(=O)Nc2cc(C(=O)Nc3cc(C(=O)NCCC(=O)Nc4cn(C)c(C(=O)Nc5cc(C(=O)NCCCC(=O)Nc6cnc(C(=O)Nc7cc(C(=O)NCCC(=O)Nc8cn(C)c(C(=O)Nc9cc(C(=O)Nc%10cc(C(=O)NCCCN(C)CCCNC(=O)CCCc%11ccc(N(CCCl)CCCl)cc%11)n(C)c%10)n(C)c9)n8)n(C)c7)n6C)n(C)c5)n4)n(C)c3)n(C)c2)n1`, the result in the assay with Nucleic Acid [1] and in the assay with Nucleic Acid [2] was Active. In the assay with K562, this molecule showed a GI50 of more than 2500 nM.

As to `CN(C)CCCNC(=O)c1cc(NC(=O)c2cc(NC(=O)c3nc(NC(=O)CCNC(=O)c4cc(NC(=O)c5ncc(NC(=O)CCCNC(=O)c6cc(NC(=O)c7nc(NC(=O)CCNC(=O)c8cc(NC(=O)c9cc(NC(=O)c%10nc(NC(=O)CCNC(=O)CCCc%11ccc(N(CCCl)CCCl)cc%11)cn%10C)cn9C)cn8C)cn7C)cn6C)n5C)cn4C)cn3C)cn2C)cn1C`, the result in the assay with Nucleic Acid [1] was Active. Also, the outcome in the assay with Nucleic Acid [2] was inactive. The molecule also had a GI50 in the assay on K562 of 8000 nM.
